According to patent publication US7897591B2, “Method of treating fatty liver disease” (priority 2005, dated 2011):

Assays:
PPAR-α = assay: Western blot densitometry of liver PPAR-α; format: in vivo, mouse; details: HCD+MAR mice; nuclear + cytosolic summed; mean±SEM; P<0.02 vs HCD-only (11.5±4.4)
Protocol: Control animals (n=5) received normal chow and water ad libitum. All animals in the experimental groups were fed a fat-free, high carbohydrate liquid diet (HCD) ad libitum placed in one bottle per cage as previously described (3, 62). No additional sources of nutrition or hydration were provided. The HCD liquid solution contained 20% dextrose, a commercial mixture of 2% essential and nonessential amino acids (TrophAmine, B. Braun Medical, Irvine, Calif.), 2 ml trace elements (Trace Elements Injection 4, USP—Pediatric, American Regent Shirley, N.Y.), and 5 ml multivitamins (M.V.I. Pediatric™, Mayne Pharma, Paramus, N.J.). Each liter of HCD contained 30 meq sodium, 20 meq potassium chloride, 15 meq calcium, 10 meq magnesium, and 10 mM phosphate. The bottles were replaced daily with fresh HCD solution. HCD animals (n=5) received HCD only and no additional treatment for 19 days. The HCD+MAR animals (n=15) additionally received 100 mg/kg of Marimastat™ in 0.45% methylcellulose (Sigma-Aldrich Corporation, St. Louis, Mo.) vehicle twice daily via orogastric gavage. The animals were individually weighed every third day and at sacrifice. […] The assay was read at 595 nm and analyzed with Softmax® PRO Software (Molecular Devices Corporation, Sunnyvale, Calif.). 30 ug of protein per sample were analyzed by SDS-PAGE. […]

C57BL/6 mice = assay: MR spectroscopy of percentage liver fat content in HCD mouse model; format: in vivo; details: HCD+MAR mice, 100 mg/kg twice daily orogastric gavage, 19 days; mean±SEM; P<0.05 vs HCD-only (24.1±1.7%)
Protocol: Experiments were performed on 5-6 week-old C57BL/6 mice (Jackson Laboratories, Bar Harbor, Me.). The animals, in groups of five, were housed in a barrier room and were acclimated to their environment for at least 72 hours prior to the initiation of each experiment. Animal protocols complied with the NIH Animal Research Advisory Committee guidelines and were approved by the Children's Hospital Boston Animal Care and Use Committee. Control animals (n=5) received normal chow and water ad libitum. All animals in the experimental groups were fed a fat-free, high carbohydrate liquid diet (HCD) ad libitum placed in one bottle per cage as previously described (3, 62). No additional sources of nutrition or hydration were provided. […] Three 2 mm thick slices were imaged for each sample and the saturation recovery curves were generated from signal intensities measured in identically sized regions of interest within a given slice. […] Spectra were obtained following Fourier transformation and phasing, and percent fat content was determined relative to water by numerical integration of the areas under the lipid and water peaks by an independent blinded reviewer.

## CNC(=O)[C@@H](NC(=O)[C@H](CC(C)C)[C@H](O)C(=O)NO)C(C)(C)C [Marimastat]
PPAR-α
  PPAR-α level, Western blot densitometry: 151.7±3.4
C57BL/6 mice
  liver fat content by MR spectroscopy: 8.1±1.2%
